Data from ChEMBL document CHEMBL2086254, “Synthesis and identification of novel indolo[2,3-a]pyrimido[5,4-c]carbazoles as a new class of anti-cancer agents” (Eur J Med Chem, 2012).
Calls of active or inactive are those of the source. The rule behind the calls is not given here.

Legend:
HCT-15 [1] = test: Cytotoxicity against human HCT15 cells after 48 hrs by SRB assay; assay type: functional; conditions: HCT-15, 48 h
UO-31 = test: Cytotoxicity against human UO31 cells assessed as cell growth at 10 uM after 48 hrs by SRB assay relative to control; assay type: functional; conditions: UO-31, 48 h, read-out: Activity
HOP-62 [2] = test: Cytotoxicity against human HOP62 cells assessed as cell growth at 10 uM after 48 hrs by SRB assay relative to control; assay type: functional; conditions: HOP-62, 48 h, read-out: Activity
BT-549 [3] = test: Cytotoxicity against human BT549 cells assessed as cell growth at 10 uM after 48 hrs by SRB assay relative to control; assay type: functional; conditions: BT-549, 48 h, read-out: Activity
BT-549 [4] = test: Cytotoxicity against human BT549 cells after 48 hrs by SRB assay; assay type: functional; conditions: BT-549, 48 h
[5] = target: DNA topoisomerase 2-alpha (Homo sapiens) (UniProt P11388); test: Inhibition of human DNA topoisomerase 2 at 100 uM after 1 hr by agarose gel circular DNA decatenation assay
Sequence of DNA topoisomerase 2-alpha (Homo sapiens) (P11388 whole entry): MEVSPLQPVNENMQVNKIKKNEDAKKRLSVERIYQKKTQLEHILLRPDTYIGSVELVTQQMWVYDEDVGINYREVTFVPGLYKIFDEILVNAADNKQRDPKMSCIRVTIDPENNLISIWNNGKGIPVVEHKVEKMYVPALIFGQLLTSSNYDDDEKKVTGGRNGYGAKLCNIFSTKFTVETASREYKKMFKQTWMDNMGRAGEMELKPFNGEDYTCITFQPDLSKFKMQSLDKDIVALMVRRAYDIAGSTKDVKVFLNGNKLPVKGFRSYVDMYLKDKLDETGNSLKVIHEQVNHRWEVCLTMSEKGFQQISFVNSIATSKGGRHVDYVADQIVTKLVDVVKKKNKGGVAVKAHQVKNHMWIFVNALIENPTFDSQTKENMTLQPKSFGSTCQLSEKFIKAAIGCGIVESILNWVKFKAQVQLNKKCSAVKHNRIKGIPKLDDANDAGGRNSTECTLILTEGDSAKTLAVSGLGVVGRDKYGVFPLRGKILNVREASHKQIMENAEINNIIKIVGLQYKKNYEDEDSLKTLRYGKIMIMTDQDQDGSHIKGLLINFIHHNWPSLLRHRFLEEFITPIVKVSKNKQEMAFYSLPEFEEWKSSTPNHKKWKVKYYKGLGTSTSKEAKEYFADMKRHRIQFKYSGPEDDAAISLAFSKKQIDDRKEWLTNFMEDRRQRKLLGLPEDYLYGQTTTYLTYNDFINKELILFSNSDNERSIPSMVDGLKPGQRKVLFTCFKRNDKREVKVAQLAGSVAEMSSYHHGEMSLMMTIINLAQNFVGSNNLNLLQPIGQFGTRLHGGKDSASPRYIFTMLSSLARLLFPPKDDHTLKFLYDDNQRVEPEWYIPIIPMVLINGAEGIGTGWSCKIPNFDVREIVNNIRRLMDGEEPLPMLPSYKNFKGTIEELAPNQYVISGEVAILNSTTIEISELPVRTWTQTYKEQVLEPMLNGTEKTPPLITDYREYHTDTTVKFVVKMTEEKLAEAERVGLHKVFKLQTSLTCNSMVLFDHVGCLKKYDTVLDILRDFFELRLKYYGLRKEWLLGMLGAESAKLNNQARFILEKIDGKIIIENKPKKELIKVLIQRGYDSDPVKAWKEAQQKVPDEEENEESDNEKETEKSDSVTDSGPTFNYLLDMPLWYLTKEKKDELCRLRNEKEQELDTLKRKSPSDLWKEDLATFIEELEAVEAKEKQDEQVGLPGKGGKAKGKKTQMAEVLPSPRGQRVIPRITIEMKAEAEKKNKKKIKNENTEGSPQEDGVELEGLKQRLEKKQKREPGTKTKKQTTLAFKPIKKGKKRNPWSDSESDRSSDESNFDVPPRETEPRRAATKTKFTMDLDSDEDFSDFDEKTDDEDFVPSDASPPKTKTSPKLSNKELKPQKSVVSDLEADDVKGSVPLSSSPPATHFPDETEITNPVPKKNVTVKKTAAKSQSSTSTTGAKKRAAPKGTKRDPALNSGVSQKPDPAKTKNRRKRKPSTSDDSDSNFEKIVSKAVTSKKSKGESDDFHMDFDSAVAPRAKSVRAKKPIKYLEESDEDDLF

IGROV-1 = test: Cytotoxicity against human IGROV1 cells assessed as cell growth at 10 uM after 48 hrs by SRB assay relative to control; assay type: functional; conditions: IGROV-1, 48 h, read-out: Activity
MDA-MB-231 = test: Cytotoxicity against human MDA-MB-231 cells assessed as cell growth at 10 uM after 48 hrs by SRB assay relative to control; assay type: functional; conditions: MDA-MB-231, 48 h, read-out: Activity
MCF7 = test: Cytotoxicity against human MCF7 cells assessed as cell growth at 10 uM after 48 hrs by SRB assay relative to control; assay type: functional; conditions: MCF7, 48 h, read-out: Activity
HOP-62 [6] = test: Cytotoxicity against human HOP62 cells after 48 hrs by SRB assay; assay type: functional; conditions: HOP-62, 48 h
HT-29 [7] = test: Cytotoxicity against human HT-29 cells assessed as cell growth at 10 uM after 48 hrs by SRB assay relative to control; assay type: functional; conditions: HT-29, 48 h, read-out: Activity
OVCAR-3 [8] = test: Cytotoxicity against human OVCAR3 cells assessed as cell growth at 10 uM after 48 hrs by SRB assay relative to control; assay type: functional; conditions: OVCAR-3, 48 h, read-out: Activity
M14 = test: Cytotoxicity against human M14 cells after 48 hrs by SRB assay; assay type: functional; conditions: M14, 48 h
SNB-75 = test: Cytotoxicity against human SNB75 cells after 48 hrs by SRB assay; assay type: functional; conditions: SNB-75, 48 h
HL-60 = test: Cytotoxicity against human HL60 cells assessed as cell growth at 10 uM after 48 hrs by SRB assay relative to control; assay type: functional; conditions: HL-60, 48 h, read-out: Activity
OVCAR-3 [9] = test: Cytotoxicity against human OVCAR3 cells after 48 hrs by SRB assay; assay type: functional; conditions: OVCAR-3, 48 h
SR = test: Cytotoxicity against human SR cells assessed as cell growth at 10 uM after 48 hrs by SRB assay relative to control; assay type: functional; conditions: read-out: Activity
MDA-MB-468 = test: Cytotoxicity against human MDA-MB-468 cells assessed as cell growth at 10 uM after 48 hrs by SRB assay relative to control; assay type: functional; conditions: MDA-MB-468, 48 h, read-out: Activity
MOLT-4 [10] = test: Cytotoxicity against human MOLT4 cells assessed as cell growth at 10 uM after 48 hrs by SRB assay relative to control; assay type: functional; conditions: MOLT-4, 48 h, read-out: Activity
SF-539 = test: Cytotoxicity against human SF539 cells assessed as cell growth at 10 uM after 48 hrs by SRB assay relative to control; assay type: functional; conditions: SF-539, 48 h, read-out: Activity
NCI-H322M = test: Cytotoxicity against human NCI-H322M cells assessed as cell growth at 10 uM after 48 hrs by SRB assay relative to control; assay type: functional; conditions: read-out: Activity
KM12 = test: Cytotoxicity against human KM12 cells assessed as cell growth at 10 uM after 48 hrs by SRB assay relative to control; assay type: functional; conditions: KM12, 48 h, read-out: Activity
MOLT-4 [11] = test: Cytotoxicity against human MOLT4 cells after 48 hrs by SRB assay; assay type: functional; conditions: MOLT-4, 48 h
LOX IMVI = test: Cytotoxicity against human LOXIMVI cells assessed as cell growth at 10 uM after 48 hrs by SRB assay relative to control; assay type: functional; conditions: read-out: Activity
CAKI-1 = test: Cytotoxicity against human Caki1 cells assessed as cell growth at 10 uM after 48 hrs by SRB assay relative to control; assay type: functional; conditions: CAKI-1, 48 h, read-out: Activity
HCT-15 [12] = test: Cytotoxicity against human HCT15 cells assessed as cell growth at 10 uM after 48 hrs by SRB assay relative to control; assay type: functional; conditions: HCT-15, 48 h, read-out: Activity
SN12C = test: Cytotoxicity against human SN12C cells assessed as cell growth at 10 uM after 48 hrs by SRB assay relative to control; assay type: functional; conditions: read-out: Activity
A498 = test: Cytotoxicity against human A498 cells after 48 hrs by SRB assay; assay type: functional; conditions: A498, 48 h
786-0 = test: Cytotoxicity against human 786-0 cells assessed as cell growth at 10 uM after 48 hrs by SRB assay relative to control; assay type: functional; conditions: 786-0, 48 h, read-out: Activity
CCRF-CEM = test: Cytotoxicity against human CCRF-CEM cells assessed as cell growth at 10 uM after 48 hrs by SRB assay relative to control; assay type: functional; conditions: read-out: Activity
COLO 205 = test: Cytotoxicity against human COLO205 cells assessed as cell growth at 10 uM after 48 hrs by SRB assay relative to control; assay type: functional; conditions: COLO 205, 48 h, read-out: Activity
SNB-19 = test: Cytotoxicity against human SNB19 cells after 48 hrs by SRB assay; assay type: functional; conditions: SNB-19, 48 h
HT-29 [13] = test: Cytotoxicity against human HT-29 cells after 48 hrs by SRB assay; assay type: functional; conditions: HT-29, 48 h
[14] = read-out: LC50 (the source's name)

Which GI50 (HCT-15 [1]) does the source give for `Cn1c2ccccc2c2c3nc(N)[nH]c(=O)c3c3c4ccccc4n(C)c3c21` here?
The GI50 was 1.98 µM.

What about the TGI (HCT-15 [1]) of the same compound?
Its TGI is greater than 100 µM.

What about the CC50 (HCT-15 [1]; [14]) of the same compound?
The CC50 was greater than 100 µM.

And the growth at 10 µM (UO-31)?
Its growth at 10 µM is 7.16%.

And the growth at 10 µM (HOP-62 [2])?
Its growth at 10 µM is 95.2%.

And the growth at 10 µM (BT-549 [3])?
Its growth at 10 µM is 76.6%.

And the GI50 (BT-549 [4])?
The GI50 was 16.3 µM.

What about the TGI (BT-549 [4]) of the same compound?
The TGI was greater than 100 µM.

And the CC50 (BT-549 [4]; [14])?
The CC50 was greater than 100 µM.

What about the inhibition [5] of the same compound?
The inhibition was “inactive”.

And the growth at 10 µM (IGROV-1)?
Its growth at 10 µM is 65.8%.

What about the growth at 10 µM (MDA-MB-231) of the same compound?
Its growth at 10 µM is 103%.

What about the growth at 10 µM (MCF7) of the same compound?
The growth at 10 µM was 25%.

What about the GI50 (HOP-62 [6]) of the same compound?
Its GI50 is 41 µM.

And the TGI (HOP-62 [6])?
The TGI was greater than 100 µM.

And the CC50 (HOP-62 [6]; [14])?
The CC50 was greater than 100 µM.

What about the growth at 10 µM (HT-29 [7]) of the same compound?
Its growth at 10 µM is 17.6%.

What about the growth at 10 µM (OVCAR-3 [8]) of the same compound?
The growth at 10 µM was 82.9%.

What about the GI50 (M14) of the same compound?
Its GI50 is 3.36 µM.

And the TGI (M14)?
The TGI was 89.6 µM.

What about the CC50 (M14; [14]) of the same compound?
Its CC50 is greater than 100 µM.

And the GI50 (SNB-75)?
The GI50 was 66.6 µM.

What about the TGI (SNB-75) of the same compound?
The TGI was greater than 100 µM.

What about the CC50 (SNB-75; [14]) of the same compound?
The CC50 was greater than 100 µM.

What about the growth at 10 µM (HL-60) of the same compound?
The growth at 10 µM was 34.3%.

And the GI50 (OVCAR-3 [9])?
Its GI50 is 9.07 µM.

And the TGI (OVCAR-3 [9])?
The TGI was 25.6 µM.

What about the CC50 (OVCAR-3 [9]; [14]) of the same compound?
Its CC50 is 69.8 µM.

What about the growth at 10 µM (SR) of the same compound?
The growth at 10 µM was 64%.

What about the growth at 10 µM (MDA-MB-468) of the same compound?
The growth at 10 µM was 80.3%.

What about the growth at 10 µM (MOLT-4 [10]) of the same compound?
Its growth at 10 µM is 53.3%.

And the growth at 10 µM (SF-539)?
The growth at 10 µM was 99.1%.

And the growth at 10 µM (NCI-H322M)?
The growth at 10 µM was 32.9%.

What about the growth at 10 µM (KM12) of the same compound?
The growth at 10 µM was 19.9%.

What about the GI50 (MOLT-4 [11]) of the same compound?
The GI50 was 6.09 µM.

What about the TGI (MOLT-4 [11]) of the same compound?
Its TGI is greater than 100 µM.

What about the CC50 (MOLT-4 [11]; [14]) of the same compound?
Its CC50 is greater than 100 µM.

And the growth at 10 µM (LOX IMVI)?
The growth at 10 µM was 60.9%.

And the growth at 10 µM (CAKI-1)?
Its growth at 10 µM is -14.9%.

And the growth at 10 µM (HCT-15 [12])?
The growth at 10 µM was 43.7%.

What about the growth at 10 µM (SN12C) of the same compound?
Its growth at 10 µM is 61.4%.

What about the GI50 (A498) of the same compound?
Its GI50 is 27.4 µM.

And the TGI (A498)?
Its TGI is 97.1 µM.

And the CC50 (A498; [14])?
Its CC50 is greater than 100 µM.

And the growth at 10 µM (786-0)?
Its growth at 10 µM is 62.3%.

And the growth at 10 µM (CCRF-CEM)?
Its growth at 10 µM is 35.2%.

What about the growth at 10 µM (COLO 205) of the same compound?
Its growth at 10 µM is 67.9%.

And the GI50 (SNB-19)?
Its GI50 is greater than 100 µM.

And the TGI (SNB-19)?
The TGI was greater than 100 µM.

What about the CC50 (SNB-19; [14]) of the same compound?
The CC50 was greater than 100 µM.

And the GI50 (HT-29 [13])?
Its GI50 is 3.98 µM.

What about the TGI (HT-29 [13]) of the same compound?
The TGI was 66.1 µM.

What about the CC50 (HT-29 [13]; [14]) of the same compound?
The CC50 was greater than 100 µM.
